{"source": "patent US20210267251A1", "about": "“COMPOSITIONS AND METHODS USING A NICOTINAMIDE ADENINE DINUCLEOTIDE (NAD+) PRECURSOR AND AT LEAST ONE KETONE OR KETONE PRECURSOR” (SOCIETE DES PRODUITS NESTLE S.A., priority 2018, published 2021)", "system": "human iPSC-derived astrocytes", "test": "Oxygen consumption (mitochondrial respiration) in human iPSC-derived astrocytes, Seahorse XF96", "format": "cell-based", "details": "hiPSC-derived astrocytes; NR 0.5 mM for 24 hours; ketone bodies BHB (0.5 mM or 2 mM) or BHP for 1 h in KRBH 1 mM glucose; uncoupled with FCCP 1 μM; FIG. 6", "procedure": "Differentiated human iPSC astrocytes were obtained from Cellular Dynamics International (CDI, Madison, Wis., USA). The cells were thawed according to the manufacturer's instructions. iCell astrocytes were cultured in DMEM supplemented with 10% fetal calf serum and N2 complement. Oxygen consumption in human iPSC-derived astrocytes was measured in a Seahorse XF96 instrument (Seahorse Bioscience, North Billerica, Mass., USA). Astrocytes were seeded directly into Seahorse 96-well tissue culture plates (XF96 FluxPaks no. 102416-100; Seahorse Bioscience) at a density of 40,000 cells per well. Cells were incubated for 24 hours with 0.5 mM of Nicotinamide riboside chloride (NR) or fresh medium before experiment. Four days after seeding, the cells were washed twice in KRBH 1 mM glucose and incubated for 1 h with the ketone bodies BHB (racemic (D,L) BHB) or BHP (D BHP) at the concentration indicated. The cells were maintained at 37° C. during the experiment. Mitochondrial respiration rates were determined every 6 minutes. […] The oxygen consumption rate in hiPSC-derived astrocytes was measured as an indication of mitochondrial function, using a Seahorse instrument. Through addition of the uncoupling agent FCCP, uncoupled (=maximal) respiration was determined.", "data": [{"compound": "NC(=O)c1ccc[n+]([C@@H]2O[C@H](CO)[C@@H](O)[C@H]2O)c1", "note": "[NR, Nicotinamide riboside chloride]", "values": [{"measurement": "maximal (uncoupled) respiration, oxygen consumption rate", "value": "Neither ketone bodies alone nor NR treatment significantly increases maximal respiration"}]}]}
